# Assay results taken from ChEMBL document CHEMBL5291721, “A preclinical secondary pharmacology resource illuminates target-adverse drug reaction associations of marketed drugs” (Nat Commun, 2023).
# Assays:
# [1] = target: Beta-1 adrenergic receptor (Homo sapiens, UniProt P08588); format: functional
# [2] = target: Neuronal acetylcholine receptor subunit alpha-4 (Homo sapiens, UniProt P43681)
# [3] = target: Vascular endothelial growth factor receptor 2 (Homo sapiens, UniProt P35968); format: functional
# Vascular endothelial growth factor receptor 2, sequence (P35968 whole entry): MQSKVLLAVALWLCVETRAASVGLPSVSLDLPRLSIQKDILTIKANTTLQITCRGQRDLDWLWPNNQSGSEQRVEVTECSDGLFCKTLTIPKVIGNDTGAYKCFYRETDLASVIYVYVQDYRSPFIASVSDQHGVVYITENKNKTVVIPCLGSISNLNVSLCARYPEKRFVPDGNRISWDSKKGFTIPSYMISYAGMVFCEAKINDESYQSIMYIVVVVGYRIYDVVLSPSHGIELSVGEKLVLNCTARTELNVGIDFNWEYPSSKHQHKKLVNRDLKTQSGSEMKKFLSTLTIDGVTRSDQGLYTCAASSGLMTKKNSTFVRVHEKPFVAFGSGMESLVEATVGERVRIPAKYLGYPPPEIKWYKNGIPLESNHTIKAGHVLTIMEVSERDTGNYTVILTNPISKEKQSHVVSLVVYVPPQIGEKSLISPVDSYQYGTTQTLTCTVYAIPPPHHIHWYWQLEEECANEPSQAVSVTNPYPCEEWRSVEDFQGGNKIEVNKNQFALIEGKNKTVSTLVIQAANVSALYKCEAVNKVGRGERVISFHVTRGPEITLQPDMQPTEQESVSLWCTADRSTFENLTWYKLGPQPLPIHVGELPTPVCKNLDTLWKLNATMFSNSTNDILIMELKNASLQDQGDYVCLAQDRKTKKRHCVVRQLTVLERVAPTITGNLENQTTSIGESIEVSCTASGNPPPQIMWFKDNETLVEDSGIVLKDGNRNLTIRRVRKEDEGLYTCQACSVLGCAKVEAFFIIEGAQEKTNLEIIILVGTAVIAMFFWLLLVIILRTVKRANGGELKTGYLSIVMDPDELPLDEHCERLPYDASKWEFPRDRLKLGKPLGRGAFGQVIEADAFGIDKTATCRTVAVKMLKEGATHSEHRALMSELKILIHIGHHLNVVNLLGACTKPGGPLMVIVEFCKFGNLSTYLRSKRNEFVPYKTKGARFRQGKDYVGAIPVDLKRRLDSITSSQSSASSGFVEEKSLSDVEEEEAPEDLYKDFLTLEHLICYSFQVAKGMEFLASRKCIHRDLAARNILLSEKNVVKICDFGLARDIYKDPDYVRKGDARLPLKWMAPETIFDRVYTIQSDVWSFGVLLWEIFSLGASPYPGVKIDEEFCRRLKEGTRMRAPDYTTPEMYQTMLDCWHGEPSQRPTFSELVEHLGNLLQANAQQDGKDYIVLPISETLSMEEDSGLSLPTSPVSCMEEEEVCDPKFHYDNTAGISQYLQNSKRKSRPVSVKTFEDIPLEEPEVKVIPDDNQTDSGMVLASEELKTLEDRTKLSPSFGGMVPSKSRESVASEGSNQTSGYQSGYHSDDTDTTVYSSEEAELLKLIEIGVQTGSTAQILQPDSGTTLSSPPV
# [4] = target: T1, Progesterone receptor (Homo sapiens, UniProt P06401); format: functional
# T1 sequence (P06401 whole entry): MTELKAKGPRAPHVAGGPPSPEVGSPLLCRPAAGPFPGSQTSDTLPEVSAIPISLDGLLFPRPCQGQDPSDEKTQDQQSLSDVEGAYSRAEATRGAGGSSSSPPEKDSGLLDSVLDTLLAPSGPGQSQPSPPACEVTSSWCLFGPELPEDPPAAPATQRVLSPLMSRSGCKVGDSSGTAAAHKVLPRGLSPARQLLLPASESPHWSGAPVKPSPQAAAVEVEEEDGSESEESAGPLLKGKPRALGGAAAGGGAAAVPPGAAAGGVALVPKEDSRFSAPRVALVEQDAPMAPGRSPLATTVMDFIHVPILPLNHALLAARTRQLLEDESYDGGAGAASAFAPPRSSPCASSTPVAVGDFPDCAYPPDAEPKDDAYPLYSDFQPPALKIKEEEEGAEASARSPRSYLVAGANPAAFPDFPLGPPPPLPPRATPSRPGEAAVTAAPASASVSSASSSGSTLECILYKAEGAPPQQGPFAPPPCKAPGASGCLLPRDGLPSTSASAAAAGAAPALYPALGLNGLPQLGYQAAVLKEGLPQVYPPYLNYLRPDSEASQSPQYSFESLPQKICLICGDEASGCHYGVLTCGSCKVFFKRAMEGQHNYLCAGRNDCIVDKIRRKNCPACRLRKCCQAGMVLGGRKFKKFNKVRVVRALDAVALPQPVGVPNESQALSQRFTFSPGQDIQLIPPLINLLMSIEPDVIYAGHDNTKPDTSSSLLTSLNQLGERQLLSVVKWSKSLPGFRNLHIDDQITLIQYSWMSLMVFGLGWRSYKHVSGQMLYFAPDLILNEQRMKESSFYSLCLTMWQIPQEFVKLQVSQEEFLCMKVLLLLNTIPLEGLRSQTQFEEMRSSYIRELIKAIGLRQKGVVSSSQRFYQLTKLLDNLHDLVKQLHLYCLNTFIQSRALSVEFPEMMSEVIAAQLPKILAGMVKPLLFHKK
# [5] = target: T2, Alpha-2A adrenergic receptor (Homo sapiens, UniProt P08913); format: functional, cell-based
# T2 sequence (P08913 whole entry): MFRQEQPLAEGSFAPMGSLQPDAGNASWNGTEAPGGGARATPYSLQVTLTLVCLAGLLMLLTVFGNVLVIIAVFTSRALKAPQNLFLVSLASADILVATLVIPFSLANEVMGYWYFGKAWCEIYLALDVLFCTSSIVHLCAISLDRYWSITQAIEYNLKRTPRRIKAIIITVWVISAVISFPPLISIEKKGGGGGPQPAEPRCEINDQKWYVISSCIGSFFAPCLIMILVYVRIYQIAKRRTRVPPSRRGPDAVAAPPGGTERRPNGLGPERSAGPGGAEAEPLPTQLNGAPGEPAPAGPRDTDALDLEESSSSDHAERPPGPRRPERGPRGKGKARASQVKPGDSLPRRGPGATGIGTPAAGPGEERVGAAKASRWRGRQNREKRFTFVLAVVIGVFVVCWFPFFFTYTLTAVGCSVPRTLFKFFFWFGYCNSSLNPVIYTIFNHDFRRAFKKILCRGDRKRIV
# [6] = target: D(1A) dopamine receptor (Homo sapiens, UniProt P21728); format: functional, cell-based
# D(1A) dopamine receptor, sequence (P21728 whole entry): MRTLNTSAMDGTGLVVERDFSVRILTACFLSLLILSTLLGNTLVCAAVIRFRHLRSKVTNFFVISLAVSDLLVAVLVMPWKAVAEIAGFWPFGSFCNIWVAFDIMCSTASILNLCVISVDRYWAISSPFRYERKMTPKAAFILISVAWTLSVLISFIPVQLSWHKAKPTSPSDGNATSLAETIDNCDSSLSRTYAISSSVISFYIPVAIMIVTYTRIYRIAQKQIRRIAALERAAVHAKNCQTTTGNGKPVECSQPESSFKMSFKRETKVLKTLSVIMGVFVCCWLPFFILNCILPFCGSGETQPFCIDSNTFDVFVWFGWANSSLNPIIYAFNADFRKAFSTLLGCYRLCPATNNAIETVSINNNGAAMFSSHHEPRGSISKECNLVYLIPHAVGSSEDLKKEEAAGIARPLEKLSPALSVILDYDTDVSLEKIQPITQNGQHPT
# [7] = target: Growth hormone secretagogue receptor type 1 (Homo sapiens, UniProt Q92847)
# Growth hormone secretagogue receptor type 1, sequence (Q92847 whole entry): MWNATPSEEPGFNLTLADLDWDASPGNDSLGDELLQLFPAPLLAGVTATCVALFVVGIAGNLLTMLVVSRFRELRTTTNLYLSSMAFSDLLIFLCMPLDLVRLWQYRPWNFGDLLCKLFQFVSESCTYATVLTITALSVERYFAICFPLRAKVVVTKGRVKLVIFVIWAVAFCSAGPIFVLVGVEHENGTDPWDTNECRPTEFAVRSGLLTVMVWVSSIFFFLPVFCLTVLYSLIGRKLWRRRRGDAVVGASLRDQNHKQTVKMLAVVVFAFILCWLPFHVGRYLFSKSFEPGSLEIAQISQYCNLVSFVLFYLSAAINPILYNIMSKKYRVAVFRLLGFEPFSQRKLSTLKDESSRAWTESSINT
# [8] = target: T3, 5-hydroxytryptamine receptor 1A (Homo sapiens, UniProt P08908); format: functional, cell-based
# T3 sequence (P08908 whole entry): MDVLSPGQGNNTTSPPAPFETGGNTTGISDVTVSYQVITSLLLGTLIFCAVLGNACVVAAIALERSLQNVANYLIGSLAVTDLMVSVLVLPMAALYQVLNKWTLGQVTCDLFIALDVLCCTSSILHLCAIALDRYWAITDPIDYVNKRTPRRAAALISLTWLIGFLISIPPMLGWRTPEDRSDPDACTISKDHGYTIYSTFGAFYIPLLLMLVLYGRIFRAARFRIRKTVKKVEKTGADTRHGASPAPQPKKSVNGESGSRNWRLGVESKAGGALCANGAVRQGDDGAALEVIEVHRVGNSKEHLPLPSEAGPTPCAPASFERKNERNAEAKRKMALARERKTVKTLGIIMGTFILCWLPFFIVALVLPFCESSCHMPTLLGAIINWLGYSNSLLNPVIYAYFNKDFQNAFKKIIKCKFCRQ
# [9] = target: 5-hydroxytryptamine receptor 2B (Homo sapiens, UniProt P41595); format: functional, cell-based
# 5-hydroxytryptamine receptor 2B, sequence (P41595 whole entry): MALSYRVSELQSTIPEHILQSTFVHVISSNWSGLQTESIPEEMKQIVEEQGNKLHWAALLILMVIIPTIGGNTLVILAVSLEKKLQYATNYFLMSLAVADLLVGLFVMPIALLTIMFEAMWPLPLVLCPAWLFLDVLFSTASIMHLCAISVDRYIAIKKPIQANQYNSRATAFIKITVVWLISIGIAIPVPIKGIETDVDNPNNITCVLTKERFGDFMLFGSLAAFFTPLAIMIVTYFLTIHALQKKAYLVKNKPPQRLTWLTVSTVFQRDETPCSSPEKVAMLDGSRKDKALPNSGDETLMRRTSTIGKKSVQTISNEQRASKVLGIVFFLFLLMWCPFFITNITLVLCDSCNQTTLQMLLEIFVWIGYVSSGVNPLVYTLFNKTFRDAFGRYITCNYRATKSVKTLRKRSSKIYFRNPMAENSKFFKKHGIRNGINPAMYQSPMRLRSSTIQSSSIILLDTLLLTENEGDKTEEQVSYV
# [10] = target: Histamine H3 receptor (Homo sapiens, UniProt Q9Y5N1)
# Histamine H3 receptor, sequence (Q9Y5N1 whole entry): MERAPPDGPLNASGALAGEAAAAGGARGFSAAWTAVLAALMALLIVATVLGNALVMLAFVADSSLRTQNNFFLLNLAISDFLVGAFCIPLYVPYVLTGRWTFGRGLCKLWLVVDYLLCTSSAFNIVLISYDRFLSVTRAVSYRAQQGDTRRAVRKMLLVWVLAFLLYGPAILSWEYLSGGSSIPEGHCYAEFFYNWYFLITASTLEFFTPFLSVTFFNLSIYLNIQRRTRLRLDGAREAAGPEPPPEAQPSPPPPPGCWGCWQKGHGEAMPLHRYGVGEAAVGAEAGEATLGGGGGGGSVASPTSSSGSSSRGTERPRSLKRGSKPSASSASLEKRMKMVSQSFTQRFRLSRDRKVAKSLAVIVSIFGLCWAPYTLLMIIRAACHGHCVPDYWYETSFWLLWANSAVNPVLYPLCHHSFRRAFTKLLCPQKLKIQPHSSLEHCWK
# Also: assay procedure not described here.
# Neuronal acetylcholine receptor subunit alpha-4, sequence (P43681 whole entry): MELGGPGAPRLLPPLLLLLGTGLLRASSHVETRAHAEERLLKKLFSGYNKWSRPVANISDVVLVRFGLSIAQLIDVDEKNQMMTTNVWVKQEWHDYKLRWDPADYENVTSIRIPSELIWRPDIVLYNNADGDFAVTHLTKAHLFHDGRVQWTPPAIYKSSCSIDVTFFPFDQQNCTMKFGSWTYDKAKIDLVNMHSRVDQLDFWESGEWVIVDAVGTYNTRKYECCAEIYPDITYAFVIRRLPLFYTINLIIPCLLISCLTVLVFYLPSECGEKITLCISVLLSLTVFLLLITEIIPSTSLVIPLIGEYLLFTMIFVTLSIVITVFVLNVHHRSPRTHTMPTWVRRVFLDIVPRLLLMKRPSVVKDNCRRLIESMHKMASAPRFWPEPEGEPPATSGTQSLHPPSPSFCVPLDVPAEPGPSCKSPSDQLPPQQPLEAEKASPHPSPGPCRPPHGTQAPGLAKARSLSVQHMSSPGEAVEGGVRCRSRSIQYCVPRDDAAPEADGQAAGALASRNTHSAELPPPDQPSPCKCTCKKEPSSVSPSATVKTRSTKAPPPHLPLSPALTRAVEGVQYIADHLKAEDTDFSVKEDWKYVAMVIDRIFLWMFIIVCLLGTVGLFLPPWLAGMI
# Beta-1 adrenergic receptor, sequence (P08588 whole entry): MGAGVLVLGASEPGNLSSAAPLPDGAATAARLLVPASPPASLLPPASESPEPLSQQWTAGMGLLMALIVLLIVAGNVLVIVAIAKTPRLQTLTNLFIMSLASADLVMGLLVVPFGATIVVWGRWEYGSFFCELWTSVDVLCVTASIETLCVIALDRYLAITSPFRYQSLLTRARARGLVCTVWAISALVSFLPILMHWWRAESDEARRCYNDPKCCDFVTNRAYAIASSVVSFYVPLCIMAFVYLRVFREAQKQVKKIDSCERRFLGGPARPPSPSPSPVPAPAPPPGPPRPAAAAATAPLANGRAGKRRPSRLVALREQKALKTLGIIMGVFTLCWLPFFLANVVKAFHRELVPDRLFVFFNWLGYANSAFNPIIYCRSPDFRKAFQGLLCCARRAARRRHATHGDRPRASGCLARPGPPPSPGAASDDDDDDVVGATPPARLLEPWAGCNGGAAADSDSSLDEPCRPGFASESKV
smiles,measurement,setting,value
Cc1cc(C2CCCCC2)n(O)c(=O)c1 [CICLOPIROX],AC50,[1],> 30 µM
same,AC50,[2],> 30 µM
same,AC50,[3],> 30 µM
same,AC50,[4],> 30 µM
O=C(O)Cc1ccccc1Nc1c(Cl)cccc1Cl [DICLOFENAC],AC50,[5],> 10 µM
same,AC50,[1],> 10 µM
same,AC50,[2],> 10 µM
same,AC50,[6],> 10 µM
same,AC50,[7],> 30 µM
same,AC50,[8],> 10 µM
same,AC50,[9],> 10 µM
same,AC50,[3],> 3 µM
same,AC50,[10],> 10 µM
O=C1Cc2cc(CCN3CCN(c4nsc5ccccc45)CC3)c(Cl)cc2N1 [ZIPRASIDONE],AC50,[1],> 10 µM
same,AC50,[2],> 10 µM
same,AC50,[7],> 30 µM
same,AC50,[9],0.229 µM
same,AC50,[3],11.2 µM
same,AC50,[10],> 30 µM
O=C(O)P(=O)(O)O [FOSCARNET],AC50,[3],> 30 µM
C[N+](C)(CCCCCC[N+](C)(C)C1c2ccccc2-c2ccccc21)C1c2ccccc2-c2ccccc21 [HEXAFLUORENIUM],AC50,[3],> 30 µM
CC(C(=O)O)c1cccc(Oc2ccccc2)c1 (configuration not stated) [FENOPROFEN],AC50,[3],> 30 µM
C[C@H]1CN(C[C@H](Cc2ccccc2)C(=O)NCC(=O)O)CC[C@@]1(C)c1cccc(O)c1 [ALVIMOPAN],AC50,[3],> 30 µM
O=C(O)Cc1ccccc1Oc1ccc(Cl)cc1Cl [FENCLOFENAC],AC50,[5],> 10 µM
same,AC50,[1],> 10 µM
same,AC50,[2],> 10 µM
same,AC50,[6],> 30 µM
same,AC50,[7],> 30 µM
same,AC50,[8],> 10 µM
same,AC50,[9],> 10 µM
same,AC50,[3],> 30 µM
same,AC50,[10],> 10 µM
CCNC(=O)/C=C(C)/C=C/C=C(C)/C=C/c1c(C)cc(OC)c(C)c1C [MOTRETINIDE],AC50,[3],> 30 µM
Cc1ccccc1C(=O)Nc1ccc(C(=O)N2CCCC(O)c3cc(Cl)ccc32)c(C)c1 (configuration not stated) [TOLVAPTAN],AC50,[3],> 30 µM
CCCc1nc2c(C)cc(-c3nc4ccccc4n3C)cc2n1Cc1ccc(-c2ccccc2C(=O)O)cc1,AC50,[5],3.96 µM
same,AC50,[1],> 30 µM
same,AC50,[2],> 30 µM
same,AC50,[6],> 30 µM
same,AC50,[7],> 30 µM
same,AC50,[8],> 30 µM
same,AC50,[9],6.33 µM
same,AC50,[3],> 10 µM
same,AC50,[4],> 30 µM
same,AC50,[10],> 30 µM
CCCCC1C(=O)N(c2ccccc2)N(c2ccc(O)cc2)C1=O (configuration not stated) [OXYPHENBUTAZONE ANHYDROUS],AC50,[3],> 30 µM
O=C(O)c1ccccc1 [BENZOIC ACID],AC50,[3],> 30 µM
COC(=O)[C@@H](N)Cc1ccc(O)c(O)c1 [MELEVODOPA],AC50,[3],> 30 µM
CC1(C)O[C@@H]2C[C@H]3[C@@H]4C[C@H](F)C5=CC(=O)C=C[C@]5(C)[C@@]4(F)[C@@H](O)C[C@]3(C)[C@]2(C(=O)CO)O1 [FLUOCINOLONE ACETONIDE],AC50,[3],> 30 µM
CN(C)c1ccc(O)c2c1C[C@H]1C[C@H]3[C@H](N(C)C)C(O)=C(C(N)=O)C(=O)[C@@]3(O)C(O)=C1C2=O [MINOCYCLINE],AC50,[3],> 30 µM
Cc1ccc(C(=O)c2ccc(CC(=O)O)n2C)cc1 [TOLMETIN],AC50,[3],> 30 µM
Cc1ccc(C)c(OCCCC(C)(C)C(=O)O)c1 [GEMFIBROZIL],AC50,[5],> 10 µM
same,AC50,[1],> 10 µM
same,AC50,[2],> 10 µM
same,AC50,[6],> 10 µM
same,AC50,[7],> 30 µM
same,AC50,[8],> 10 µM
same,AC50,[9],4.4 µM
same,AC50,[3],> 30 µM
same,AC50,[10],> 10 µM
Cc1cc(=O)oc2cc(O)ccc12 [HYMECROMONE],AC50,[3],25.4 µM
C[Se]CC[C@H](N)C(=O)O [SELENOMETHIONINE],AC50,[3],> 30 µM
Nc1cccc2c1C(=O)N(C1CCC(=O)NC1=O)C2=O (configuration not stated) [POMALIDOMIDE],AC50,[3],> 30 µM
N=C(N)N/N=C/c1c(Cl)cccc1Cl [GUANABENZ],AC50,[3],> 30 µM
CCC1=C[C@@H]2CN(C1)Cc1c([nH]c3ccccc13)[C@@](C(=O)OC)(c1cc3c(cc1OC)N(C)[C@H]1[C@@](O)(C(=O)OC)[C@H](OC(C)=O)[C@]4(CC)C=CCN5CC[C@]31[C@@H]54)C2 [VINORELBINE],AC50,[3],> 30 µM
O=C(O)CN(CCN(CC(=O)O)CC(=O)O)CCN(CC(=O)O)CC(=O)O [PENTETIC ACID],AC50,[3],> 30 µM
CC[C@@H]1C[C@]1(NC(=O)[C@@H]1C[C@@H]2CN1C(=O)[C@H](C(C)(C)C)NC(=O)OCC(C)(C)CCCCc1cccc3c1CN(C3)C(=O)O2)C(=O)NS(=O)(=O)C1CC1,AC50,[3],16.3 µM
COc1ccc2[nH]c([S+]([O-])Cc3ncc(C)c(OC)c3C)nc2c1 (configuration not stated) [OMEPRAZOLE],AC50,[3],> 30 µM
